# In patent publication US6855710B2, “Substituted indolines with an inhibitory effect on various kinases and complexes of CDKs” (Boehringer Ingelheim Pharma KG, priority 1998, dated 2005):
row,SMILES,melting point
1,"CC(=O)NCc1ccc(N/C(=C2\C(=O)Nc3ccc([N+](=O)[O-])cc32)c2ccccc2)cc1 [Example 143, (Z)-3-[1-(4-acetylaminomethyl-phenylamino)-1-phenyl-methylidene]-5-nitro-2-indolinone]",345 to 346 °C
2,"COc1ccc(/C(Nc2ccc(CN(C)C)cc2)=C2/C(=O)Nc3ccc([N+](=O)[O-])cc32)cc1 [Example 216, (Z)-3-[1-(4-dimethylaminomethyl-phenylamino)-1-(4-methoxyphenyl)-methylidene]-5-nitro-2-indolinone]",259 to 262 °C
3,"CC(=O)Nc1ccc(N/C(=C2\C(=O)Nc3ccc([N+](=O)[O-])cc32)c2ccccc2)cc1 [Example 93, (Z)-3-[1-(4-acetylamino-phenylamino)-1-phenyl-methylidene]-5-nitro-2-indolinone]",328 to 330 °C
4,"O=C1Nc2ccc(Br)cc2/C1=C(/Nc1ccc(CN2CCCCC2)cc1)c1ccccc1 [Example 450, (Z)-3-[1-(4-piperidinomethyl-phenylamino)-1-phenyl-methylidene]-5-bromo-2-indolinone]",170 °C
5,"O=C(O)COc1ccc(N/C(=C2\C(=O)Nc3ccccc32)c2ccccc2)cc1 [Example 290, (Z)-3-{1-[4-(carboxymethyloxy)-phenylamino]-1-phenyl-methylidene}-2-indolinone]",238 to 240 °C
6,"CCOC(=O)CN(c1ccc(N/C(=C2\C(=O)Nc3ccccc32)c2ccccc2)cc1)S(=O)(=O)CC [Example 297, (Z)-3-{1-[4-(N-ethoxycarbonylmethyl-N-ethylsulphonyl-amino)-phenylamino]-1-phenyl-methylidene}-2-indolinone]",228 to 230 °C
7,"CC(C)(C)OC(=O)NCc1cccc(N/C(=C2\C(=O)Nc3ccccc32)c2ccccc2)c1 [Example 67, (Z)-3-[1-(3-tert.butoxycarbonylaminomethyl-phenylamino)-1-phenyl-methylidene]-2-indolinone]",190 to 195 °C
8,"CN(C)Cc1cccc(N/C(=C2\C(=O)Nc3ccc([N+](=O)[O-])cc32)c2ccccc2)c1 [Example 107, (Z)-3-[1-(3-dimethylaminomethyl-phenylamino)-1-phenyl-methylidene]-5-nitro-2-indolinone]",214 to 217 °C
9,"O=C1Nc2ccc([N+](=O)[O-])cc2/C1=C(/Nc1ccc(CNC2CCCCC2)cc1)c1ccccc1 [Example 278, (Z)-3-{1-[4-(cyclohexylaminomethyl)-phenylamino]-1-phenyl-methylidene}-5-nitro-2-indolinone]",245 °C
10,"CCNC(=O)Nc1ccc(N/C(=C2\C(=O)Nc3ccccc32)c2ccccc2)cc1 [Example 45, (Z)-3-[1-(4-ethylaminocarbonylamino-phenylamino)-1-phenyl-methylidene]-2-indolinone]",264 to 265 °C
11,"O=C1Nc2ccc([N+](=O)[O-])cc2/C1=C(/Nc1ccc(N2CCOCC2)cc1)c1ccccc1 [Example 80, (Z)-3-[1-(4-morpholinophenylamino)-1-phenyl-methylidene]-5-nitro-2-indolinone]",> 300 °C
12,"CC(=O)N1C(=O)/C(=C(\Nc2ccc(CNC(=O)OC(C)(C)C)cc2)c2ccc(CN3C(=O)c4ccccc4C3=O)cc2)c2cc([N+](=O)[O-])ccc21 [Example 146, (Z)-3-[1-(4-tert.butoxycarbonylaminomethyl-phenylamino)-1-(4-phthalimidomethyl-phenyl)-methylidene]-1-acetyl-5-nitro-2-indolinone]",125 °C (dec.)
13,"CCC(=O)N(CCN1CCOCC1)c1ccc(N/C(=C2\C(=O)Nc3ccccc32)c2ccccc2)cc1 [Example 349, (Z)-3-{1-[4-(N-(2-morpholinoethyl)-N-propionyl-amino)-phenylamino]-1-phenyl-methylidene}-2-indolinone]",228 °C
